The structures appear in SMILES notation.

This assay has as its target T1, microsomal dipeptidase (Rattus norvegicus, UniProt P31430).
T1 construct: Membrane dipeptidase was purified from rat lung microsomes; from tissue; host or cells: rat lung microsomes
Nature of the assay: Specificity of apstatin: microsomal (membrane) dipeptidase. The class given is biochemical. The conditions noted are these: purified, rat lung; Gly-D-Phe, pH 8.0, HPLC-1. An excerpt: Enzymes--Membrane-bound aminopeptidase P was purified to homogeneity from bovine lung (14) and from rat lung. Partially purified membrane-bound aminopeptidase P from human lung was obtained by treatment of lung microsomes with phosphatidylinositol-specific phospholipase C (B. thuringiensis) (ICN, Costa Mesa, Calif.) followed by centrifugation as described previously (14). Membrane dipeptidase was purified from rat lung microsomes (manuscript in preparation). Recombinant E. coli aminopeptidase P (22) and purified lamb kidney prolyl oligopeptidase (23) were generally supplied by Dr. Tadashi Yoshimoto (Nagasaki University). Purified porcine kidney prolidase and purified porcine kidney aminopeptidase M was obtained from Sigma (St. Louis, Mo.).
Specificity of Apstatin--Apstatin was assayed for its ability to inhibit several other peptidases. […] Unless otherwise indicated, the source of each enzyme activity was a detergent extract of bovine lung prepared as described in (12-13). Activities were determined by a modification of the fluorescent assay described above (indicated by "FLUO") or by HPLC separation and quantitation of reaction products using the method described in (12) (method "HPLC-1") or the method described below (method "HPLC-2"). […]

T1 sequence (P31430 17-410): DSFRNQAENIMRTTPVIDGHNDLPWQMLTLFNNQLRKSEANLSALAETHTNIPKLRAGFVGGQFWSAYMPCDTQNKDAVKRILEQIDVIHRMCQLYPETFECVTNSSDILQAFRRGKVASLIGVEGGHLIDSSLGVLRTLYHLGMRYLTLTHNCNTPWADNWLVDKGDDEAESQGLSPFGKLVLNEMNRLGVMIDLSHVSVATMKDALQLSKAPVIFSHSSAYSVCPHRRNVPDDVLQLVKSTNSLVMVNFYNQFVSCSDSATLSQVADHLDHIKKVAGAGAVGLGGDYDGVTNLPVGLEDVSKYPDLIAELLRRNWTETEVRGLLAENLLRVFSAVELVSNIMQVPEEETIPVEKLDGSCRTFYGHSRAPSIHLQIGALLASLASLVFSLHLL

On to `C[C@H](NC(=O)[C@@H]1CCCN1C(=O)[C@@H]1CCCN1C(=O)[C@@H](O)[C@H](N)Cc1ccccc1)C(N)=O` [apstatin, N-[(2S, 3R)-3-amino-2-hydroxy-4-phenylbutanoyl]-L-prolyl-L-prolyl-Lalaninamide], for which the half-inhibitory concentration (IC50) (commonly the point on the concentration scale where inhibition reaches its midpoint) was over 800 µM.
